Reference: ChEMBL document CHEMBL3425452, “Farnesyl diphosphate synthase inhibitors with unique ligand-binding geometries” (ACS Med Chem Lett, 2015)

How the values were obtained:
[1] = Inhibition of Trypanosoma brucei FPPS
[2] = Inhibition of Leishmania donovani FPPS
[3] = tested on: Trypanosoma brucei rhodesiense; test: Growth inhibition of Trypanosoma brucei rhodesiense

SMILES | IC50 [1] | IC50 [2] | EC50 [3]
O=P(O)(O)C(O)(Cc1cccnc1)P(=O)(O)O [RISEDRONIC ACID] | 300 nM | – | –
Cc1cccnc1NC(P(=O)(O)O)P(=O)(O)O | 230 nM | – | –
O=P(O)(O)C(O)(CCc1cccnc1)P(=O)(O)O | 33000 nM | 5400 nM | 1700 nM
